Measurements reported in US4845221A, “Serotonergic substituted piperazinyl tetralins” (American Home Products Corporation, priority 1988, dated 1989).
Entries after “also recorded” stand apart in the source; their conditions may differ.

How the values were obtained:
[1] = system: 5-HT1A serotonin receptor; settings: cited from earlier work
[2] = target: T1, 5-HT-1A serotonin receptor (Rattus norvegicus, UniProt P19327); assay: displacement of [3H]8-OH DPAT from the 5-HT-1A serotonin receptor; type: binding; settings: for inhibition at 1 µM / Ki: [3H]8-OH DPAT; for inhibition at 1 µM: read-out: % Inhibition 1 μm 5 HT1A; for selectivity / separation of 5-HT1A vs D-2 binding (in words): 5-HT1A relative to D-2; for Ki: in parentheses after % inhibition, read-out: Ki 5 HT1A
T1 construct: 44: 1685-1696, 1985; from tissue
T1 sequence (P19327 1-422): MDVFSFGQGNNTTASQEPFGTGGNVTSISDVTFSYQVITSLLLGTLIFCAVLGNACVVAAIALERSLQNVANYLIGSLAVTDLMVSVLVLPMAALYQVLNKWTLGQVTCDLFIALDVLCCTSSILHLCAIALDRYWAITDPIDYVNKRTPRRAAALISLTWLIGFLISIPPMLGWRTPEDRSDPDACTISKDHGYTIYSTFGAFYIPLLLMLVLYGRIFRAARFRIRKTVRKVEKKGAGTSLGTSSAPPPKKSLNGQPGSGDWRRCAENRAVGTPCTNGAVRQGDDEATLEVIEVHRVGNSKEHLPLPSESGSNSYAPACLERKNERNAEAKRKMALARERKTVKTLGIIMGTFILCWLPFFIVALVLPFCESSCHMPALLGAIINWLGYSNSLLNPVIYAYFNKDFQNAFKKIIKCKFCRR
Source text: The serotonergic properties of the compounds of this invention were established by standard pharmacologically accepted procedures involving the measurement of the compound's ability to displace [^3 H]8-OH DPAT (dipropylaminotetralin) from the 5-HT-1A serotonin receptor by the procedure of Hall et al., J. Neurochem. 44: 1685-1696, 1985.

[3] = system: D-2 dopamine receptor; assay: inhibition of 3H-spiroperidol binding, homogenized limbic brain tissue (D-2 dopamine receptor affinity); settings: for % Inhibition 1 μM D-2: 3H-spiroperidol, limbic brain tissue
Procedure: The relatively low D-2 dopamine receptor affinity of the compounds of this invention was established by a modification of the procedure of Fields et al., Brain Res., 136, pp. 578-584 (1977) and Yamamura et al., eds. Neurotransmitter Receptor Binding, Raven Press, N.Y. (1978), wherein homogenized limbic brain tissue is incubated with ^3 H-spiroperidol and various concentrations of test compound, filtered, washed and shaken with Hydrofluor scintillation cocktail (National Diagnostics) and counted in a Packard 460 CD scintillation counter.

[4] = system: 5-HT1A (a serotonin receptor subtype); settings: Middlemiss et al., European J. of Pharmacol. 90 151 (1983); cited from earlier work

SMILES	inhibition at 1 µM [2] [%]	D-2 dopamine receptor binding/affinity (in words) [3]	% Inhibition 1 μM D-2 [3] [%]	5-HT1A binding/affinity (in words) [2]	Ki [2] [nM]	5-HT1A receptor affinity of known agents (in words) [1]	selectivity / separation of 5-HT1A vs D-2 binding (in words) [2]	5-HT1A agonist activity (in words) [4]
CC1(C)CC(=O)N(CCCCN2CCN(c3ncccn3)CC2)C(=O)C1 [gepirone]						selective 5-HT1A serotonin receptor affinity		
COc1ccc2c(c1)CC(N1CCN(c3ccccc3OC)CC1)CC2 (stereo not shown) [Compound 7]	93	higher D-2 binding	65					
COc1ccccc1N1CCN(C2CCc3cccc(OC)c3C2)CC1 (stereo not shown) [Compound 5]	4	relatively high dopamine receptor binding	72	almost complete loss of serotonin receptor agonism			reverses the selective activity	
Oc1cccc2c1CC(N1CCN(c3ncccn3)CC1)CC2 (stereo not shown) [Compound 4, 2-[4-(1,2,3,4-tetrahydro-8-hydroxy-2-naphthalenyl)-1-piperazinyl]pyrimidine]	91		0		109		most selective serotonin receptor binding	
CCCN(CCC)C1CCc2cccc(O)c2C1 (stereo not shown) [8-OH DPAT, 8-hydroxy-2-(di-n-propylamino)-tetralin]						selective 5-HT1A serotonin receptor affinity		selective 5-HT1A (a serotonin receptor subtype) agonist activity
O=C1CC2(CCCC2)CC(=O)N1CCCCN1CCN(c2ncccn2)CC1 [buspirone]						potent affinity; also recorded: selective 5-HT1A serotonin receptor affinity		
COc1ccc2c(c1)CC(N1CCN(c3cccc(C(F)(F)F)c3)CC1)CC2 (stereo not shown) [Compound 6]	77	relative high dopamine receptor binding	49	reduced 5-HT1A agonism			unacceptable separation of properties	
COc1cccc2c1CC(N1CCN(c3ncccn3)CC1)CC2 (stereo not shown) [Compound 3, 2-[4-(1,2,3,4-tetrahydro-8-methoxy-2-naphthalenyl)-1-piperazinyl]pyrimidine]	84.6		3		63			
Oc1cccc2c1CC(N1CCN(c3cccc(C(F)(F)F)c3)CC1)CC2 (stereo not shown) [Compound 2, 1-(1,2,3,4-tetrahydro-8-hydroxy-2-naphthalenyl)-4-[3-(trifluromethyl)phenyl]piperazine]	100		46		14			
O=C1c2ccccc2S(=O)(=O)N1CCCCN1CCN(c2ncccn2)CC1 [ipsapirone]						selective 5-HT1A serotonin receptor affinity		
COc1cccc2c1CC(N1CCN(c3cccc(C(F)(F)F)c3)CC1)CC2 (stereo not shown) [Compound 1, 1-(1,2,3,4-tetrahydro-8-methoxy-2-naphthalenyl)-4-[3-(trifluoromethyl)phenyl]piperazine]	97		5		11			

Further lines, with some results ahead:

inhibition at 1 µM [2] [%]	D-2 dopamine receptor binding/affinity (in words) [3]	% Inhibition 1 μM D-2 [3] [%]	5-HT1A binding/affinity (in words) [2]	Ki [2] [nM]	SMILES	5-HT1A receptor affinity of known agents (in words) [1]	selectivity / separation of 5-HT1A vs D-2 binding (in words) [2]	5-HT1A agonist activity (in words) [4]
15	negligible D-2 binding	7	negligible activity		Oc1ccc2c(c1)CCC(N1CCN(c3ncccn3)CC1)C2 (stereo not shown) [Compound 12]			
44			marked reduction in 5-HT1A binding		COc1ccc2c(c1)CCC(N1CCN(c3ncccn3)CC1)C2 (stereo not shown) [Compound 11]			
83		11			COc1ccc2c(c1)CC(N1CCN(c3ncccn3)CC1)CC2 (stereo not shown) [Compound 8]		improved separation of properties with emphasis on 5-HT1A binding	
97	increased D- 2 binding markedly	65			COc1ccc2c(c1)CCC(N1CCN(c3cccc(C(F)(F)F)c3)CC1)C2 (stereo not shown) [Compound 9]			
87	which property was retained	72			Oc1ccc2c(c1)CCC(N1CCN(c3cccc(C(F)(F)F)c3)CC1)C2 (stereo not shown) [Compound 10]			
